Test results taken from patent publication US20130095189A1, “COMPOSITION AND METHOD OF PHYTONUTRIENTS FOR METABOLIC PROGRAMMING EFFECTS” (priority 2011, published 2013).
“Also recorded” adds a separate entry of the source.

Columns and labels:
Format in all cases: cell-based, human
GST mRNA = GST mRNA expression by TaqMan real-time PCR in skin fibroblast cell models
From the text: (§1) Total cellular RNA is isolated using Genelute Mammalian Total RNA Kit (Sigma-Aldrich) according to the manufacturer's instructions. […] Standard curves are constructed with serial dilutions of control sample and analyzed using ABI software. Data are normalized against a house keeping gene, 18S ribosomal RNA. Gene expression is quantified by ^ΔΔCt method where fold of induction=2^-ΔΔ[…]., Analysis of relative gene expression data using real-time quantitative PCR and the 2(-Delta Delta C(T)) Method. Methods 2001. 25, 402-408).

UGT mRNA = UGT mRNA expression by TaqMan real-time PCR in skin fibroblast cell models
From the text: as §1

NQO1 mRNA = NQO1 mRNA expression by TaqMan real-time PCR in skin fibroblast cell models
From the text: as §1

GST (GSTA1) = assay: GST protein expression by immunoblotting in skin fibroblast cell models; settings: 24 h
Description: (§2) Treated and control cells are washed twice with ice cold phosphate buffered saline (PBS) and then incubated for 30 min in the Nonidet P-40 (NP-40) buffer (20 mM Tris-HCl, pH 8, 150 mM NaCl, 10% glycerol, 1% NP-40) containing one tablet of complete mini-EDTA-free protease inhibitor cocktail (Roche) in 10 ml buffer. Cells are harvested by scraping and the homogenate is centrifuged at 13,684 g at 4° C. for 15 min. The supernatants are collected and frozen at −80° C. The protein concentrations are determined using Bradford reagent (Sigma) according to the manufacturer's instructions. 20 μg of protein lysate is resolved by 10% SDS-polyacrylamide gel and transferred onto polyvinylidenedifluoride membranes (Bio-Rad) with a semidry transfer cell (Trans-Blot; Bio-Rad). Membranes are blocked for 1 hour at room temperature or overnight at 4° C. with Marvel fat-free milk powder (5% w/v), Tween 20 (0.05%, v/v) in PBS. Proteins of interest are visualized by exposing membranes to primary antibodies in milk for 2 hours at room temperature. Dilutions of antibodies are rabbit polyclonal GSTA1, 1:2000, goat polyclonal NQO1 1:1000 and goat polyclonal UGT1A 1:1000. Following primary antibody incubation membranes are incubated with suitable HRP-conjugated secondary antibody and signals are detected using an enhanced chemiluminescence kit (GE Healthcare) according to manufacturer's instructions. β-actin level is determined as loading control and bands are visualized using Fujifilm LAS3000 Imager.

UGT (UGT1A) = assay: UGT protein expression by immunoblotting in skin fibroblast cell models; settings: 24 h
Description: as §2

NQO1 = NQO1 protein expression by immunoblotting in skin fibroblast cell models; settings: 24 h
Description: as §2

[1] = 1 month old cell model, 5, 10, 20 μM
[2] = 1 month old cell model, control=1
[3] = adult cell model, highest concentration (20 μM), control=1
[4] = cell model, all concentrations tested

Molecule | GST mRNA expression relative to control (GST mRNA; adult cell model, 5, 10, 20 μM) | GST mRNA expression relative to control (GST mRNA; infant cell models) | UGT mRNA expression relative to control (UGT mRNA; adult cell model, 5, 10, 20 μM) | NQO1 mRNA expression relative to control (NQO1 mRNA; adult cell model, 5, 10, 20 μM) | NQO1 mRNA expression relative to control (NQO1 mRNA; infant cell models) | GST protein expression (immunoblot, ratio to beta-actin) (GST (GSTA1); cell model, higher doses) | UGT protein expression (immunoblot, ratio to beta-actin) (UGT (UGT1A); cell model, higher doses) | NQO1 protein expression (immunoblot, ratio to beta-actin) (NQO1; cell model, higher doses) | upregulation of GST mRNA compared to control (GST mRNA; [2]) | NQO1 mRNA expression relative to control (NQO1 mRNA; [1]) | GST protein expression (immunoblot, ratio to beta-actin) (GST (GSTA1); adult cell model, 5, 10, 20 μM) | NQO1 protein expression (immunoblot, ratio to beta-actin) (NQO1; adult cell model, higher dose) | further results
C[S+]([O-])CCCCN=C=S (stereo not drawn) [sulforaphane, 4-methylsulfinylbutyl isothiocyanate] | significant increase | significantly increased; also recorded: significant increases | significant increase | significant increase | significant increases | significantly upregulated | significantly upregulated | significantly upregulated |  |  |  |  | increase in NQO1 mRNA compared to control (NQO1 mRNA; infant cell models, control=1): 6-35 fold; UGT protein expression (immunoblot, ratio to beta-actin) (UGT (UGT1A); [1]): significant induction; UGT protein expression (immunoblot, ratio to beta-actin) (UGT (UGT1A); adult cell model, 5, 10, 20 μM): affected; NQO1 protein expression (immunoblot, ratio to beta-actin) (NQO1; adult cell model, 5, 10, 20 μM): significant upregulation
catechin | dose-response upregulation | significant increases | an increase | dose-response upregulation | significant increases | significantly upregulated | significantly upregulated | significantly upregulated | 3.7 fold | unaffected | increases | significant upregulation | UGT mRNA expression relative to control (UGT mRNA; [1]): unaffected; increase in NQO1 mRNA expression (NQO1 mRNA; cell model, control=1): 4.5 fold
O=c1c(O)c(-c2ccc(O)c(O)c2)oc2cc(O)cc(O)c12 [quercetin] | significant dose-dependent increase |  | significant dose-dependent increase |  |  |  |  |  | 3.9 fold | significantly increased | increases | significant upregulation | GST mRNA expression relative to control (GST mRNA; [1]): significantly increased; upregulation of GST mRNA (GST mRNA; [3]): 7.4 fold; GST mRNA expression relative to control (GST mRNA; [4]): do not demonstrate any significant changes; upregulation of UGT mRNA (UGT mRNA; [3]): 5.5 fold; UGT mRNA expression relative to control (UGT mRNA; [4]): do not demonstrate any significant changes; upregulation of NQO1 mRNA compared to control (NQO1 mRNA; [2]): 7.2 fold; NQO1 mRNA expression relative to control (NQO1 mRNA; [4]): do not demonstrate any significant changes
